Data taken from patent publication US20140142613A1, “INSTRUMENT FOR CAPTURING FREE THROMBI” (Toray Industries, Inc., priority 2011, published 2014).

Test system: citrated blood
Test: Measurement of whole blood clotting time (Sonoclot, ACT ONSET value)
Parameters: species or system human
Experimental: In a cuvette (NON-ACTIVATED CLOTTING TEST KIT), 18 μL of physiological saline was placed, and 14.8 μL of Calcicol was added thereto, followed by further adding 342 μL of the citrated blood to the resulting mixture. The mixture was then subjected to measurement using a Sonoclot coagulation & Platelet Function Analyzer (IMI Corporation), and the obtained ACT ONSET value was regarded as the whole blood clotting time.

CC1CNc2c(cccc2S(=O)(=O)N[C@@H](CCCNC(=N)N)C(=O)N2CC[C@@H](C)C[C@@H]2C(=O)O)C1 (mixture of isomers) [argatroban, (2R,4R)-4-methyl-1-((2S)-2-{[(3RS)-3-methyl-1,2,3,4-tetrahydroquinolin-8-yl]sulfonyl}amino-5-guanidinopentanoyl)piperidine-2-carboxylic acid]
whole blood clotting time (2 μM argatroban solution instead of physiological saline): 531 s | whole blood clotting time (10 μM argatroban solution instead of physiological saline): 746 s | whole blood clotting time (20 μM argatroban solution instead of physiological saline): 849 s
